Measured values: patent publication US11331364B2, “Use for JNK inhibitor molecules for treatment of various diseases” (Xigen Inflammation Ltd., priority 2014, dated 2022)
Square brackets hold non-standard residues; d marks the D form. Peptide text beside a SMILES is read from it.

Assays:
[1] = tested on: endotoxins-induced uveitis albino rat model; experiment: Endotoxins-induced uveitis (EIU), single intravenous injection, clinical scoring; assay type: in vivo; parameters: key to clinical score (mean±SEM) / clinical score, median: clinical ocular inflammation score per eye, 0 to 4; settings: 24 h after LPS
Experimental: The anti-inflammatory potency of the JNK inhibitor of SEQ ID NO: 172 was tested in albino rats following intravenous administration (EIU/LPS model). The aim of this study was to determine the effects of single intravenous injections of SEQ ID NO: 172 (0.015, 0.18, and 1.80 mg/kg) on the inflammatory response in an endotoxins-induced uveitis albino rat model and to compare these affects to those obtained with prior art JNK inhibitor of SEQ ID NO: 197 (2 mg/kg). As a further control served phosphate sodic dexamethasone (“reference”) and vehicle (0.9% NaCl).
Sixty (60) male Lewis rats were randomly divided into six (6) groups often (10) animals each. 0.9% NaCl (vehicle, “control”), SEQ ID NO: 197 at 2 mg/kg and SEQ ID NO: 172 at three concentrations (1.80 mg/kg, 0.18 mg/kg and 0.015 mg/kg) were administered by intravenous injection just before EIU induction (on the day of induction). Accordingly, phosphate sodic dexamethasone (20 Dg/eye, 5 μl; “reference”) was administered by a single sub-conjunctival injection in both eyes just before EIU induction (on the day of induction). EIU was induced by footpad injection of lipopolysaccharide (LPS, 1 mg/kg). 24 hours after LPS injection, inflammatory response was evaluated by clinical scoring.
The intensity of clinical ocular inflammation was scored on a scale from 0 to 4 for each eye: […]

[2] = tested on: mouse model of scopolamine-induced dry eye; experiment: Scopolamine-induced dry eye, topical ocular TID 21 days (TBUT, PRTT, histopathology); assay type: in vivo; settings: for Mean PRTT AUC: Day 7-21, in mm·day (unit assumed); for Mean Calculated TBUT AUC: Day 7 to Day 21, in s·day (unit assumed)
Experimental: The objective of this study was to assess the effects of two different compounds, the all-D-retro-inverso JNK-inhibitor (poly-)peptide of SEQ ID NO: 197 and the JNK inhibitor (poly-)peptide of SEQ ID NO: 172, at three dose levels in a mouse model of scopolamine-induced dry eye.
The peptides of SEQ ID NO: 197 and SEQ ID NO: 172 were tested for efficacy in this murine model of dry eye. The peptides were both tested at a low, medium and a high dose. […] The vehicle, which also served as the negative control, was 0.9% Sodium Chloride for Injection USP.
The study consisted of a total of 9 groups of female C57BL/6 mice, comprising 8 groups of 12 mice each and an additional group of 4 mice. Bilateral short-term dry eye was induced by a combination of scopolamine hydrobromide (Sigma-Aldrich Corp., St. Louis, Mo.) injection (subcutaneous (SC), four times daily, 0.5 mg/dose, Days 0-21) and by exposing mice to the drying environment of constant air draft. […] Mice of Group 9 were maintained as un-induced, (no dry eye) untreated controls.
During the in-life (treatment) period, clinical observations were recorded once daily; slit-lamp examination (SLE) with corneal fluorescein staining, tear break-up time test (TBUT), and phenol red thread test (PRTT) were performed three times per week. Necropsies were performed on Day 22; eyes, eye lids, conjunctivae, and lacrimal glands were collected from both eyes of each animal. Tissues from the right eyes (oculus dexter, OD) were fixed and then evaluated microscopically. Tissues from the left eyes (oculus sinister; OS) were flash-frozen in liquid nitrogen and stored frozen at −80° C. for possible subsequent analyses.
The TBUT test was conducted three times weekly by measuring the time elapsed in seconds between a complete blink after application of fluorescein to the cornea and the appearance of the first random dry spot in the tear film. […] At least ninety seconds later, corneal epithelial damage was graded using a slit-lamp with a cobalt blue filter after another drop of 0.1% fluorescein was reapplied to the cornea; the cornea then was scored per the Draize ocular scale.
Tear production was measured three times a week in both eyes using PRTT test strips (Zone-Quick; Menicon, Nagoya, Japan). Prior to the first treatment of the day, a thread was applied to the lateral canthus of the conjunctival fornix of each eye for 30 seconds under slit-lamp biomicroscopy. Tear migration up the tread (i.e., the length of the wetted cotton thread) was measured using a millimeter scale.
At necropsy on Day 22, both eyes from each animal, including the globes, lacrimal glands, eyelids, and conjunctivae, were excised. The right eye and associated tissues were fixed by overnight submersion in modified Davidson's solution followed by transfer to 10% neutral buffered formalin (NBF). The fixed tissues of the right eye were dehydrated, embedded in paraffin, sectioned at 3 to 5-μm thicknesses, and slide-mounted tissues were stained with hematoxylin and eosin (H & E). Stained slides were evaluated via light microscopy. Detailed and complete histopathologic assessment was conducted on all parts of the eye, with at least two section levels being examined histopathologically for each right eye. Special attention was paid to the cornea, epithelia (including goblet cells) of the conjunctiva and cornea, as well as the lacrimal gland. These tissues were scored for injury based upon a 0-4 scale, with 0 being normal, 1 being minimal, 2 being mild, 3 being moderate, and 4 being severe. For each cornea, scores were based on corneal epithelium thickness, and corneal inflammation.

Compound: CC(C)C[C@@H](NC(=O)[C@@H](Cc1ccccc1)NC(=O)[C@H]1CCCN1C(=O)[C@@H](CCC(N)=O)NC(=O)[C@H](NC(=O)[C@H]1CCCN1C(=O)[C@@H](CCCNC(=N)N)NC(=O)[C@@H](CO)NC(=O)[C@@H](CCC(N)=O)NC(=O)[C@H](N)CC(=O)O)C(C)C)C(=O)N[C@H](CC(N)=O)C(=O)N[C@H](CC(C)C)C(=O)N[C@@H](C(=O)N[C@@H](C(=O)N1CCC[C@@H]1C(=O)N[C@H](CCCNC(=N)N)C(=O)N[C@H](CCCCN)C(=O)N1CCC[C@@H]1C(=O)N[C@H](CCCNC(=N)N)C(=O)N1CCC[C@@H]1C(=O)N1CCC[C@@H]1C(=O)N[C@H](CCCNC(=N)N)C(=O)N[C@H](CCCNC(=N)N)C(=O)N[C@H](CCCNC(=N)N)C(=O)N[C@H](CCC(N)=O)C(=O)N[C@H](CCCNC(=N)N)C(=O)N[C@H](CCCNC(=N)N)C(=O)N[C@H](CCCCN)C(=O)N[C@H](CCCCN)C(=O)N[C@H](CCCNC(=N)N)C(=O)NCC(N)=O)[C@H](C)O)[C@H](C)O [SEQ ID NO: 197, dqsrpvqpflnlttprkprpprrrqrrkkrg, reference compound] (H-[dD][dQ][dS][dR][dP][dV][dQ][dP][dF][dL][dN][dL][dT][dT][dP][dR][dK][dP][dR][dP][dP][dR][dR][dR][dQ][dR][dR][dK][dK][dR]G-NH2)
- clinical score (mean±SEM) ([1]; 2 mg/kg i.v.): 2.2±0.3
- clinical score, median ([1]; 2 mg/kg i.v.): 2
- decrease of EIU scores vs vehicle group ([1]; 2 mg/kg i.v.): 40%
- corneal changes in comparison to other treatment groups ([2]; 0.06% TID OU): slightly more severe
- Mean PRTT AUC ([2]; 0.06% TID OU): 39.96
- Mean Calculated TBUT AUC ([2]; 0.06% TID OU): 88.54
- Mean PRTT AUC ([2]; 0.25% TID OU): 42.79
- Mean Calculated TBUT AUC ([2]; 0.25% TID OU): 91.19
- histological cornea scores compared to cyclosporine group ([2]; 0.6% TID OU): not significantly different than the cyclosporine group scores
- Mean PRTT AUC ([2]; 0.6% TID OU): 43.17
- Mean Calculated TBUT AUC ([2]; 0.6% TID OU): 89.98
- PRTT, aqueous tear production ([2]; low, mid and high dose levels): generally dose-dependent increases in PRTT
- TBUT ([2]; low, mid and high dose levels): slight generally dose-dependent increases in TBUT

Compound: CC(C)C[C@H](NC(=O)[C@H](CC(N)=O)NC(=O)[C@H](CC(C)C)NC(=O)[C@@H](NC(=O)[C@@H](C)NC(=O)[C@@H]1CCCN1C(=O)[C@H](CCCNC(=N)N)NC(=O)[C@@H](CCCCN)NC(=O)[C@@H]1CCCN1C(=O)[C@H](CCCNC(=N)N)NC(=O)[C@@H](CCCNC(=N)N)NC(=O)[C@H](CCCNC(=N)N)NC(=O)[C@H](CCCNC(=N)N)NC(=O)[C@H](CCC(N)=O)NC(=O)[C@@H](CCCNC(=N)N)NC(=O)[C@H](CCCNC(=N)N)NC(=O)[C@H](CCCCN)NC(=O)[C@H](CCCCN)NC(=O)[C@H](N)CCCNC(=N)N)[C@@H](C)O)C(=O)N[C@H](Cc1ccccc1)C(N)=O [SEQ ID NO: 172, rKKRrQRRrRPkRPaTLNLf] (H-[dR]KKR[dR]QRR[dR]RP[dK]RP[dA]TLNL[dF]-NH2; N-terminus assumed)
- clinical score (mean±SEM) ([1]; 0.015 mg/kg i.v.): 2.3±0.3
- clinical score, median ([1]; 0.015 mg/kg i.v.): 2
- reduction of inflammation vs vehicle ([1]; 0.015 mg/kg i.v.): 36%
- clinical score (mean±SEM) ([1]; 0.18 mg/kg i.v.): 2.4±0.3
- clinical score, median ([1]; 0.18 mg/kg i.v.): 2
- reduction of inflammation vs vehicle ([1]; 0.18 mg/kg i.v.): 33%
- clinical score (mean±SEM) ([1]; 1.80 mg/kg i.v.): 2.1±0.3
- clinical score, median ([1]; 1.80 mg/kg i.v.): 2
- reduction of severity of ocular inflammation vs vehicle ([1]; 1.80 mg/kg i.v.): 42%
- TBUT mean nadir (Day 7) ([2]; 0.05% TID OU): 6.6 ± 0.4 s
- TBUT mean peak (Day 9) ([2]; 0.05% TID OU): 8.0 ± 0.4 s
- Mean PRTT AUC ([2]; 0.05% TID OU): 44.38
- Mean Calculated TBUT AUC ([2]; 0.05% TID OU): 102.98
- TBUT mean nadir (Day 7) ([2]; 0.2% TID OU): 6.7 ± 0.4 s
- TBUT mean peak (Day 9) ([2]; 0.2% TID OU): 10.0 ± 0.7 s
- histological cornea scores compared to cyclosporine group ([2]; 0.2% TID OU): not significantly different than the cyclosporine group scores
- Mean PRTT AUC ([2]; 0.2% TID OU): 44.85
- Mean Calculated TBUT AUC ([2]; 0.2% TID OU): 119.08
- TBUT mean nadir (Day 7) ([2]; 0.6% TID OU): 6.7 ± 0.3 s
- TBUT mean peak (Day 9) ([2]; 0.6% TID OU): 9.9 ± 0.8 s
- histological cornea scores compared to cyclosporine group ([2]; 0.6% TID OU): not significantly different than the cyclosporine group scores
- Mean PRTT AUC ([2]; 0.6% TID OU): 46.10
- Mean Calculated TBUT AUC ([2]; 0.6% TID OU): 119.31
- TBUT AUC compared with vehicle control ([2]; SEQ ID NO: 172 0.05%, 0.2% and 0.6%, cyclosporine 0.05%, Kruskal-Wallis): significant increases in the TBUT AUC
- PRTT, aqueous tear production ([2]; low, mid and high dose levels): produced significantly more aqueous tears compared to vehicle-treated animals
